# Measurements taken from patent US20260102628A1, “METHOD AND APPARATUS FOR MONITORING OF PHOTODYNAMIC-THERAPY PRECURSOR STATES FOR ENHANCED THERAPEUTIC EFFICIENCY” (priority 2022, published 2026).
# Experiment: Optical fiber-coupled TRAST curves of IR700 in tissue and PBS buffer solution, with and without ascorbic acid
# Type: physicochemical
# Settings: IR700 in tissue or PBS buffer solution, FIG. 6B
# Source text: FIG. 6A illustrates the presently disclosed embodiment of a system for PDT (611), wherein the system is arranged such that the same excitation-light-delivering fiber(s) also are arranged as detection fiber(s). The system may thus be arranged to carry out a method for PDT as disclosed elsewhere herein.
# The system (611) typically comprises an intensity-modulated excitation light (605), e.g. from a laser (601) and an AOM (602). The excitation light (605) is applied, e.g. lensed by an objective (603), via a gradient-index multimode optical fiber (604), into a sample (609, tissue or water solution). […] The fluorescence plotted in the TRAST curves (612), corresponds to the (average) fluorescence from the PS compounds generated by the (modulated) excitation at the fiber end, which was collected (606) by the same fiber (604), passed through the fiber, through a dichroic mirror (607), and was then detected in a region-of-interest (ROI) within the field of detection of a camera (608). While only one fiber is shown in FIG. 6A, the system may comprise multiple fibers, into which excitation light from one or several lasers is introduced, and via which fluorescence detected from their fiber-ends is fed to different ROIs detected on the camera pixel array, and/or to a set of point detectors. […]
Structure (SMILES),"time range of the faster major relaxation in the TRAST curves, attributed to T1 build-up","time range of the prominent relaxation in the TRAST curves, attributed to build-up of a photo-reduced radical state population in IR700 (after addition of ascorbic acid) [ms]"
"C[Si](C)(CCC[N+](CCCS(=O)(=O)[O-])(CCCS(=O)(=O)[O-])CCCS(=O)(=O)[O-])O[Si]1(O[Si](C)(C)CCC[N+](CCCS(=O)(=O)[O-])(CCCS(=O)(=O)[O-])CCCS(=O)(=O)[O-])n2c3c4ccccc4c2N=C2N=C(N=c4c5ccccc5c(n41)=NC1=NC(=N3)c3ccccc31)c1cccc(OCCCOC(=O)NCCCCCC(=O)ON3C(=O)CCC3=O)c12.[Na+].[Na+].[Na+].[Na+] (centres unmarked) [IR700, IRdye700DX]",microsecond time range,
O=C1O[C@H]([C@@H](O)CO)C(O)=C1O [ascorbic acid],,~0.1
